Reference: patent US20260224557A1, “NRF2 ACTIVATOR” (Ivy Cosmetics Co., Ltd., priority 2023, published 2026)

System: Nrf2
Experiment: ARE (Antioxidant Response Element)-luciferase reporter assay in ARE-luciferase reporter-stably-expressing HaCaT cell line
Type: cell-based
Settings: HaCaT ARE-luciferase reporter cells, 24 hours
Protocol: The Nrf2-activating action of conophylline (crystal) which was isolated and purified from Ervatamia microphylla, which is a plant of the Apocynaceae, by the method described in JP4696303B was evaluated by ARE (Antioxidant Response Element)-luciferase reporter assay, which is known as a monitoring system for the Nrf2 antioxidant pathway. Specifically, a plasmid was obtained by inserting a polynucleotide having a sequence in which ARE sequence was repeated twice ([…]: SEQ ID NO: 1) into the multiple cloning site of pNL2.2 [NlucP/Hygro] Vector (Promega Corporation), which is a vector for luciferase reporter assay, and the plasmid was introduced into HaCaT cells (DKFZ) using Cell Line Nucleofector Kit V (Lonza) by electroporation. After 24 hours, by adding hygromycin at a final concentration of 600 μg/mL and selecting drug-resistant cells, an ARE-luciferase reporter-stably-expressing HaCaT cell line having hygromycin resistance was established. […] After 24 hours, the luciferase activities were measured using Nano-Glo Luciferase Assay System (Promega Corporation) according to the protocol, and thus the Nrf2-activating action of conophylline was evaluated.

Structure (SMILES) | luciferase activity when Nrf2 inhibitor ML-385 was added together with conophylline (ML-385 20 μM added together with conophylline 1 μg/mL) | luciferase activity (Nrf2-activating action), relative to DMSO control regarded as 1 (conophylline at various final concentrations, FIG. 1)
Cc1ccccc1C(=O)N1CCc2cc(-c3nc(NC(=O)Cc4ccc5c(c4)OCO5)sc3C)ccc21 [ML-385] | decreased considerably | 
CC[C@@]12CC(C(=O)OC)=C3Nc4cc5c(cc4[C@@]34CCN(C[C@H]3O[C@H]31)[C@@H]24)[C@@H]1[C@H](O5)[C@@H](O)[C@@]2(CC)CC(C(=O)OC)=C3Nc4c(cc(O)c(OC)c4OC)[C@@]34CCN1[C@@H]24 [conophylline] |  | enhanced the luciferase activity in a concentration-dependent manner
